How the values were obtained:
Format in all cases: in vivo
Bemisia tabaci ESP-00 [1] = experiment: Leaf-dip bioassay, 2nd-instar nymphs, multi-resistant strain ESP-00
Protocol: (§1) Larvale Tauch-Bioassays wurden mit geringfügigen Änderungen gemäß Elbert und Nauen (1996) durchgeführt. Die echten Blätter einer drei Wochen alten Baumwollpflanze wurden alle außer einem entfernt. Das verbleibende Blatt wurde auf eine Größe von ca. 15-20 cm^2 zurechtgeschnitten. Die Pflanzen wurden ohne Verwendung von Clip-Käfigen mit adulten Weißen Fliegen infiziert (ca. 20-30 adulte Tiere pro Blatt für 6-7 h). Die Weißen Fliegen wurden dann entfernt und zum geeigneten Zeitpunkt (gewöhnlich nach 10-12 d wenn die Nymphen im zweiten Stadium vorherrschten) wurden die infizierten Blätter für 5 sec in serielle wässrige Insektizidlösungen (s.o.) getaucht. Die prozentuale Mortalität wurde an Tag 21-23 bei ca. 24 °C gemessen, sobald alle Überlebenden die Puppenstadien durchschritten hatten. Jedes Insektizid wurde mindestens dreifach mit 2- oder 3-fach Bestimmungen pro Konzentration getestet.
(§2) LC50-Werte wurden aus Probit-Regressionen unter Verwendung des Computerprogramms POLO-PC 2 (LeOra Software, Berkeley, USA) berechnet.
(§3) Tabelle 1. Log-Dosis Probit Mortalitätsdaten für verschiedene Klassen von Insektiziden erhalten aus Blatt-Tauch-Bioassays gegen adulte Tiere zweier Bemisia tabaci Stämme, SUD-S und ESP-00, die bekanntermaßen Insektizid-empfindlich (SUD-S) bzw. multiresistent (ESP-00) sind (Stumpf und Nauen, 2003). Mortalität wurde nach 72 h bestimmt, mit Ausnahme von Buprofezin (10-12 d).

Bemisia tabaci ESP-00 [2] = experiment: Leaf-dip bioassay, adult whiteflies, multi-resistant strain ESP-00; details: adults; for ESP-00 LC50: multi-resistant strain ESP-00, mortality after 72 h
Text: (§4) Es wurden Versuche durchgeführt, um die überlegene Blattwirkung von Enaminocarbonylverbindungen gegen adulte Tiere eines Stamms von Bemisia tabaci zu zeigen, der bekanntermaßen resistent ist gegen Neonikotinoid-Insektizide sowie andere Insektizidklassen, einschließlich Insekten-Wachstumsregulatoren (wie Buprofezin) und Antifeedants (Substanzen, die einen Schaderreger vom Fraß abhalten) (wie Pymetrozin).
(§5) Baumwollblattscheiben (30 mm im Durchmesser) wurden für 5 sec in wässrige Lösungen technischer Insektizide, enthaltend 0,2 g/l Triton-X-100 als nicht-ionisches Benetzungsmittel, getaucht. Luftgetrocknete Blattscheiben wurden dann mit der adaxialen Seite nach unten auf ein Agarbett (12 g/l) in einer kleinen Petrischale (40 mm im Durchmesser) gelegt. Adulte Weiße Fliegen wurden mittels eines Vakuum-getriebenen Aspirators aus Aufzuchtkäfigen eingesammelt und 20 adulte Tiere wurden nach kurzer CO2-Narkose auf die Blattscheiben gelegt. Anschließend wurde jede Petrischale mit einem belüfteten Deckel verschlossen und umgedreht aufbewahrt. Nach 72 h wurde die Mortalität der Weißen Fliegen bestimmt. Jedes Insektizid wurde mindestens dreifach mit 2-oder 3-fach Bestimmungen pro Konzentration getestet.
as §2, §3

Bemisia tabaci SUD-S [3] = experiment: Leaf-dip bioassay, 2nd-instar nymphs, insecticide-susceptible strain SUD-S; details: nymphs in 2nd stage, mortality 10-12 d
Protocol: as §1, with “Die prozentuale Mortalität wurde an Tag 21-23 bei ca. 24 °C gemessen, sobald alle Überlebenden die Puppenstadien durchschritten hatten.” left out
as §2, §3

Bemisia tabaci SUD-S [4] = experiment: Leaf-dip bioassay, adult whiteflies, insecticide-susceptible strain SUD-S; details: adults, mortality after 72 h
Text: as §4, §5, §2, §3

Row | Compound | Kreuzresistenz von Nymphen im zweiten Stadium des Stamms ESP-00 (Bemisia tabaci ESP-00 [1]; 2nd-stage nymphs, result in words) | ESP-00 LC50 (Bemisia tabaci ESP-00 [1]; nymphs in 2nd stage, multi-resistant strain ESP-00, mortality 10-12 d) | akute Kurzzeiteffekte gegen adulte Tiere von B. tabaci (Bemisia tabaci ESP-00 [2]; strain not specified, result in words) | SUD-S LC50 (Bemisia tabaci SUD-S [3]) | SUD-S LC50 (Bemisia tabaci SUD-S [4]) | ESP-00 LC50 (Bemisia tabaci ESP-00 [2]) | Resistenz / Kreuz-resistenz von adulten B. tabaci Tieren des Stamms ESP-00 im Vergleich zu SUD-S (Bemisia tabaci ESP-00 [2]; leaf-dip, result in words)
1 | CC(C)N1C(=O)N(c2ccccc2)CS/C1=N\C(C)(C)C [Buprofezin] | starke Kreuzresistenz | 260 ppm | keine akuten Kurzzeiteffekte | 0.27 ppm |  |  | 
2 | CN/C(=N/CC1CCOC1)N[N+](=O)[O-] (centres unmarked) [Dinotefuran] |  |  |  |  | 0.17 ppm | 9.8 ppm | 
3 | CC1=NNC(=O)N(/N=C/c2cccnc2)C1 [Pymetrozin] |  |  |  |  | 0.49 ppm | 360 ppm | starke Resistenz
4 | CN1COCN(Cc2cnc(Cl)s2)/C1=N\[N+](=O)[O-] [Thiamethoxam] |  |  |  |  | 1.1 ppm | 76 ppm | 

Source: EP2198709A1, “Method for treating resistant animal pests” (Bayer CropScience AG, priority 2008, dated 2010)
